From the supplement of paper PMC10307832 come the findings set out here.

What all share (assay): relative viability (nuclei count vs DMSO), 5 days (fraction); higher = more cells survive
Compound in test [1]: CC(C)C[C@H](NC(=O)[C@H](CCc1ccccc1)NC(=O)CN1CCOCC1)C(=O)N[C@@H](Cc1ccccc1)C(=O)N[C@@H](CC(C)C)C(=O)[C@@]1(C)CO1 [Carfilzomib] + O=C(c1cc(Cc2n[nH]c(=O)c3ccccc23)ccc1F)N1CCN(C(=O)C2CC2)CC1 [Olaparib] (partner 8 µM)
A digest of the protocol:
(§1)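 Lung cancer cell lines in 1536-well plates were dosed by pin tool the day after seeding, either with one drug alone or with a fixed anchor-drug dose plus five library-drug doses (not always all listed) in √10 steps. After 5 days, cells were fixed and their nuclei stained in one step (final 0.05% Triton X-100, 1% formaldehyde, 1 ug/ml Hoechst), then counted on 4× images. Relative viability is the nuclei count in treated wells divided by that in vehicle wells. Values are medians of duplicate plates.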

Compound in test [2]: CC(C)C[C@H](NC(=O)[C@H](CCc1ccccc1)NC(=O)CN1CCOCC1)C(=O)N[C@@H](Cc1ccccc1)C(=O)N[C@@H](CC(C)C)C(=O)[C@@]1(C)CO1 [Carfilzomib] + COc1cccc2cc(-c3nc([C@H]4CC[C@H](C(=O)O)CC4)n4ncnc(N)c34)[nH]c12 [OSI-027] (partner 0.5 µM)
A digest of the protocol:
as §1

Compound in test [3]: O=C(c1cc(Cc2n[nH]c(=O)c3ccccc23)ccc1F)N1CCN(C(=O)C2CC2)CC1 [Olaparib] + CS(=O)(=O)N1CCN(Cc2cc3nc(-c4cccc5[nH]ncc45)nc(N4CCOCC4)c3s2)CC1 [Pictilisib] (partner 1 µM)
A digest of the protocol:
as §1

Compound in test [4]: C[C@@H](Oc1cc(-c2cnn(C3CCNCC3)c2)cnc1N)c1c(Cl)ccc(F)c1Cl [Crizotinib] + O=C(CCCCCCC(=O)Nc1ccccc1)NO [Vorinostat] (partner 1 µM)
A digest of the protocol: as §1

For NCI-H2023, the relative viability in test [1] (first compound 0.001 µM) came out at 0.484; in test [1] (first compound 0.003162 µM), 0.521; in test [1] (first compound 0.01 µM), 0.486; in test [1] (first compound 0.03162 µM) it was 0.133; in test [1] (first compound 0.1 µM) it was 0.0615; in test [2] (first compound 0.001 µM) it was 0.386. For the same cell line, the relative viability turned out to be 0.435 in test [2] (first compound 0.003162 µM); 0.467 in test [2] (first compound 0.01 µM); 0.147 in test [2] (first compound 0.03162 µM); 0.0792 in test [2] (first compound 0.1 µM); 0.286 in test [3] (first compound 0.08 µM); 0.195 in test [3] (first compound 0.253 µM). Further, the relative viability in test [3] (first compound 2.53 µM) came to 0.245; in test [3] (first compound 8 µM), 0.275; in test [4] (first compound 0.01 µM), 0.573; in test [4] (first compound 0.03162 µM), 0.8; in test [4] (first compound 0.1 µM) it was 0.568; in test [4] (first compound 0.3162 µM), 0.453. Also, the relative viability in test [4] (first compound 1 µM) was 0.621.

Take NCI-H2085: the relative viability in test [1] (first compound 0.001 µM) was 0.771; in test [1] (first compound 0.003162 µM), 0.739; in test [1] (first compound 0.01 µM) it was 0.749; in test [1] (first compound 0.03162 µM) it was 0.372; in test [1] (first compound 0.1 µM), 0.244; in test [2] (first compound 0.001 µM), 0.59. Moreover, the relative viability was 0.799 in test [2] (first compound 0.003162 µM); 0.64 in test [2] (first compound 0.01 µM); 0.264 in test [2] (first compound 0.03162 µM); 0.27 in test [2] (first compound 0.1 µM); 0.468 in test [3] (first compound 0.08 µM); 0.433 in test [3] (first compound 0.253 µM). Besides, the relative viability in test [3] (first compound 2.53 µM) amounted to 0.427; in test [3] (first compound 8 µM), 0.368; in test [4] (first compound 0.01 µM) it was 0.756; in test [4] (first compound 0.03162 µM) it was 0.733; in test [4] (first compound 0.3162 µM) it was 0.782; in test [4] (first compound 1 µM), 0.742.

As for NCI-H2087, the relative viability in test [1] (first compound 0.001 µM) stood at 0.589; in test [1] (first compound 0.003162 µM), 0.783; in test [1] (first compound 0.01 µM), 0.374; in test [1] (first compound 0.03162 µM) it was 0.0505; in test [1] (first compound 0.1 µM), 0.0285; in test [2] (first compound 0.001 µM), 0.593. In addition, the relative viability in test [2] (first compound 0.003162 µM) came out at 0.636; in test [2] (first compound 0.01 µM) it was 0.302; in test [2] (first compound 0.03162 µM), 0.0521; in test [2] (first compound 0.1 µM), 0.0683; in test [3] (first compound 0.08 µM), 0.967; in test [3] (first compound 0.253 µM), 0.797. For the same cell line, the relative viability was determined as 0.8 in test [3] (first compound 2.53 µM); 0.508 in test [3] (first compound 8 µM); 0.679 in test [4] (first compound 0.01 µM); 0.689 in test [4] (first compound 0.03162 µM); 0.766 in test [4] (first compound 0.1 µM); 0.94 in test [4] (first compound 0.3162 µM). For the same cell line, in test [4] (first compound 1 µM), the relative viability was 0.731.

Take NCI-H2126: the relative viability was determined as 0.897 in test [1] (first compound 0.001 µM); 1.01 in test [1] (first compound 0.003162 µM); 0.957 in test [1] (first compound 0.01 µM); 0.746 in test [1] (first compound 0.03162 µM); 0.464 in test [1] (first compound 0.1 µM); 0.721 in test [2] (first compound 0.001 µM). The relative viability in test [2] (first compound 0.003162 µM) was 0.707; in test [2] (first compound 0.01 µM) it was 0.76; in test [2] (first compound 0.03162 µM), 0.726; in test [2] (first compound 0.1 µM), 0.331; in test [3] (first compound 0.08 µM), 0.544; in test [3] (first compound 0.253 µM) it was 0.504. Besides, the relative viability is 0.513 in test [3] (first compound 2.53 µM); 0.556 in test [3] (first compound 8 µM); 0.636 in test [4] (first compound 0.01 µM); 0.835 in test [4] (first compound 0.03162 µM); 0.682 in test [4] (first compound 0.1 µM); 0.371 in test [4] (first compound 0.3162 µM).

For NCI-H2170, the relative viability in test [1] (first compound 0.001 µM) was 0.6; in test [1] (first compound 0.003162 µM) it was 0.674; in test [1] (first compound 0.01 µM), 0.588; in test [1] (first compound 0.03162 µM), 0.218; in test [1] (first compound 0.1 µM), 0.117; in test [2] (first compound 0.001 µM), 0.643. In addition, the relative viability came to 0.696 in test [2] (first compound 0.003162 µM); 0.792 in test [2] (first compound 0.01 µM); 0.72 in test [2] (first compound 0.03162 µM); 0.271 in test [2] (first compound 0.1 µM); 0.346 in test [3] (first compound 0.08 µM); 0.277 in test [3] (first compound 0.253 µM). Besides, the relative viability in test [3] (first compound 2.53 µM) stood at 0.305; in test [3] (first compound 8 µM), 0.332; in test [4] (first compound 0.03162 µM), 0.838; in test [4] (first compound 0.1 µM) it was 0.746; in test [4] (first compound 0.3162 µM) it was 0.795; in test [4] (first compound 1 µM), 0.828.

Regarding NCI-H2228, the relative viability in test [1] (first compound 0.001 µM) came to 0.838; in test [1] (first compound 0.003162 µM) it was 0.813; in test [1] (first compound 0.01 µM) it was 0.61; in test [1] (first compound 0.03162 µM), 0.0953; in test [1] (first compound 0.1 µM), 0.124; in test [2] (first compound 0.001 µM) it was 0.506. Besides, the relative viability in test [2] (first compound 0.003162 µM) worked out at 0.736; in test [2] (first compound 0.01 µM) it was 0.397; in test [2] (first compound 0.03162 µM) it was 0.0668; in test [2] (first compound 0.1 µM), 0.0974; in test [3] (first compound 0.08 µM), 0.429; in test [3] (first compound 0.253 µM), 0.418. Also, the relative viability in test [3] (first compound 2.53 µM) is 0.292; in test [3] (first compound 8 µM) it was 0.336; in test [4] (first compound 0.01 µM), 0.46; in test [4] (first compound 0.03162 µM) it was 0.843; in test [4] (first compound 0.1 µM), 0.402; in test [4] (first compound 0.3162 µM) it was 0.57. The relative viability in test [4] (first compound 1 µM) was determined as 0.683.

NCI-H2347: the relative viability worked out at 0.502 in test [1] (first compound 0.001 µM); 0.587 in test [1] (first compound 0.003162 µM); 0.564 in test [1] (first compound 0.01 µM); 0.503 in test [1] (first compound 0.03162 µM); 0.363 in test [1] (first compound 0.1 µM); 0.415 in test [2] (first compound 0.001 µM). Besides, the relative viability worked out at 0.366 in test [2] (first compound 0.01 µM); 0.26 in test [2] (first compound 0.03162 µM); 0.217 in test [2] (first compound 0.1 µM); 1.28 in test [3] (first compound 0.08 µM); 0.557 in test [3] (first compound 0.253 µM); 0.683 in test [3] (first compound 2.53 µM). In addition, the relative viability in test [3] (first compound 8 µM) came to 0.547; in test [4] (first compound 0.01 µM), 0.551; in test [4] (first compound 0.03162 µM), 0.606; in test [4] (first compound 0.1 µM) it was 0.671; in test [4] (first compound 0.3162 µM) it was 0.534; in test [4] (first compound 1 µM), 0.536.

For the cell line NCI-H2405, the relative viability stood at 0.836 in test [1] (first compound 0.001 µM); 0.946 in test [1] (first compound 0.003162 µM); 0.915 in test [1] (first compound 0.01 µM); 0.699 in test [1] (first compound 0.03162 µM); 0.211 in test [1] (first compound 0.1 µM); 0.667 in test [2] (first compound 0.003162 µM). Also, the relative viability amounted to 0.651 in test [2] (first compound 0.01 µM); 0.507 in test [2] (first compound 0.03162 µM); 0.305 in test [2] (first compound 0.1 µM); 0.524 in test [3] (first compound 0.08 µM); 0.406 in test [3] (first compound 0.253 µM); 0.426 in test [3] (first compound 2.53 µM). The relative viability came out at 0.469 in test [3] (first compound 8 µM); 0.955 in test [4] (first compound 0.01 µM); 1.01 in test [4] (first compound 0.03162 µM); 1.08 in test [4] (first compound 0.1 µM); 0.535 in test [4] (first compound 0.3162 µM); 0.959 in test [4] (first compound 1 µM).
